Values quoted from earlier work as cited in patent publication US20100113583A1, “COMBINATION THERAPIES FOR THE TREATMENT OF OBESITY” (priority 2008, published 2010).

Experiments:
[1] = for weight loss of body weight for drug compared with placebo: literature studies

Row | SMILES | weight loss of body weight for drug compared with placebo [1] | clinically significant side effect / limitation of clinical use | efficacy in clinical use ([1]; clinical use as weight loss drug)
1 | CC(C)CC(N(C)C)C1(c2ccc(Cl)cc2)CCC1 (stereo not drawn) [sibutramine] | about 5% | can cause hypertension | 
2 | CCCCCCCCCCC[C@@H](C[C@@H]1OC(=O)[C@H]1CCCCCC)OC(=O)[C@H](CC(C)C)NC=O [orlistat] | about 5% | GI side effects | 
3 | CCN[C@@H](C)Cc1cccc(C(F)(F)F)c1 [dexfenfluramine] | about 5% | suspected heart valvulopathy | 
4 | CCNC(C)Cc1cccc(C(F)(F)F)c1 (stereo not drawn) [fenfluramine] |  | caused heart-valve complications | 
5 | CC(C)(N)Cc1ccccc1 [phentermine] | about 5% |  | limited efficacy
